In the CheMixHub viscosity set:
± gives the uncertainty stated by the source.

Experiment: xn = mol fraction of the nth substance listed

Nc1ccccc1 + CCCO
viscosity [mPa·s]
Details	294.15 K	298.15 K	303.15 K	308.15 K	313.15 K
100 kPa, x1 = 0.091	–	–	1.673 ± 0.019	–	1.319 ± 0.015
100 kPa, x1 = 0.1839	–	–	1.635 ± 0.019	–	1.275 ± 0.015
100 kPa, x1 = 0.2978	–	–	1.609 ± 0.019	–	1.255 ± 0.015
100 kPa, x1 = 0.3949	–	–	1.626 ± 0.019	–	1.271 ± 0.015
100 kPa, x1 = 0.4741	–	–	1.673 ± 0.019	–	1.31 ± 0.015
100 kPa, x1 = 0.5952	–	–	1.819 ± 0.021	–	1.399 ± 0.016
100 kPa, x1 = 0.7405	–	–	2.129 ± 0.025	–	1.602 ± 0.019
100 kPa, x1 = 0.8903	–	–	2.582 ± 0.03	–	1.958 ± 0.023
101.33 kPa, x1 = 0.1006	2.097 ± 0.033	1.902 ± 0.03	1.685 ± 0.027	1.501 ± 0.024	1.341 ± 0.022
101.33 kPa, x1 = 0.1991	2.123 ± 0.034	1.93 ± 0.031	1.703 ± 0.027	1.516 ± 0.025	1.357 ± 0.022
101.33 kPa, x1 = 0.2994	2.219 ± 0.035	1.993 ± 0.032	1.753 ± 0.028	1.56 ± 0.025	1.394 ± 0.023
101.33 kPa, x1 = 0.3992	2.336 ± 0.037	2.098 ± 0.034	1.846 ± 0.03	1.633 ± 0.027	1.446 ± 0.024
101.33 kPa, x1 = 0.5007	2.499 ± 0.04	2.234 ± 0.036	1.952 ± 0.032	1.727 ± 0.028	1.526 ± 0.025
101.33 kPa, x1 = 0.6011	2.689 ± 0.043	2.398 ± 0.039	2.092 ± 0.034	1.842 ± 0.03	1.638 ± 0.027
101.33 kPa, x1 = 0.7011	2.963 ± 0.047	2.641 ± 0.043	2.304 ± 0.037	2 ± 0.033	1.791 ± 0.029
101.33 kPa, x1 = 0.8002	3.289 ± 0.053	2.925 ± 0.047	2.575 ± 0.042	2.241 ± 0.037	1.981 ± 0.033
101.33 kPa, x1 = 0.8983	3.671 ± 0.059	3.245 ± 0.052	2.81 ± 0.046	2.455 ± 0.04	2.16 ± 0.036
